In US4399126A, “Modulators of the complement system” (American Cyanamid Company, priority 1982, dated 1983):
Where two headings read alike, the source gives them in different places.

What was measured:
activated human C1 = molecular target: T1, activated human C1 (Homo sapiens, UniProt P09871); test: Test Code 026 (C1 inhibitor); format: biochemical; conditions: serial twofold dilution assay; higher well number indicates higher activity
T1 sequence (P09871 16-437 limits assumed): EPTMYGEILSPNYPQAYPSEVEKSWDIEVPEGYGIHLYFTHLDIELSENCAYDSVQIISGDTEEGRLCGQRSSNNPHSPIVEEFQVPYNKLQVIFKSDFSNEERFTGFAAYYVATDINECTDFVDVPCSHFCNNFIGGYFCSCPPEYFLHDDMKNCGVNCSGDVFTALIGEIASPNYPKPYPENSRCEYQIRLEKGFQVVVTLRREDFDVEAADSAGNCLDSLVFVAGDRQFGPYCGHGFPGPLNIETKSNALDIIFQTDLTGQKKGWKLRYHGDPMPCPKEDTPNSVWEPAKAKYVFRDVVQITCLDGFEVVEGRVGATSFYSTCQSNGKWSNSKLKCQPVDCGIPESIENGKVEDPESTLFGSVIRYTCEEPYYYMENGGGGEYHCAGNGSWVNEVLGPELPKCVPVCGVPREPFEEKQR
T1 sequence (P09871 438-688 limits assumed): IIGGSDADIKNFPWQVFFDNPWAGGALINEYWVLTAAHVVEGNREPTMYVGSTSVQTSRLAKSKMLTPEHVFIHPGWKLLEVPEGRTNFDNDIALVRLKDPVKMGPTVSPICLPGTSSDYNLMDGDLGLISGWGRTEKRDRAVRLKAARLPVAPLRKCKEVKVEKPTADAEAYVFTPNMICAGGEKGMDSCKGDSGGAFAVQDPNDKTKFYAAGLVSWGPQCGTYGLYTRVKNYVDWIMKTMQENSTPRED

[1] = system: late components of human complement (C3-C9); test: Test Code 035 (C3-C9 inhibitor), lysis of EAC 142; format: biochemical; conditions: serial twofold dilution assay; higher well number indicates higher activity
[2] = system: complement activity of sera; test: Guinea Pig Intraperitoneal Test (GPIP); format: in vivo; conditions: Cavia porcellus, ip, 200 mg/kg i.p., capillary complement assay
Protocol: Percent inhibition is calculated by comparison with simultaneous controls.

[3] = blood 2 hours after injection, read-out: in vivo Activity Guinea Pig % Inhibition Intraperitoneal, 2 hours
[4] = blood 6 hours after injection, read-out: in vivo Activity Guinea Pig % Inhibition Intraperitoneal, 6 hours
[5] = blood 24 hours after injection, read-out: in vivo Activity Guinea Pig % Inhibition Intraperitoneal, 24 hours

| Structure (SMILES) | in vitro Activity Cl 026 Wells (activated human C1) | in vitro Activity C-Late 035 Wells [1] | inhibition at 200 mg/kg [2, 3] | inhibition at 200 mg/kg [2, 4] | inhibition at 200 mg/kg [2, 5] |
| --- | --- | --- | --- | --- | --- |
| O=C(CCCCCCCCCCCCC(=O)Nc1ccc(S[C@@H]2O[C@H](COS(=O)(=O)O)[C@@H](O[C@H]3O[C@H](COS(=O)(=O)O)[C@@H](OS(=O)(=O)O)[C@H](OS(=O)(=O)O)[C@H]3OS(=O)(=O)O)[C@H](OS(=O)(=O)O)[C@H]2OS(=O)(=O)O)cc1)Nc1ccc(S[C@@H]2O[C@H](COS(=O)(=O)O)[C@@H](O[C@H]3O[C@H](COS(=O)(=O)O)[C@@H](OS(=O)(=O)O)[C@H](OS(=O)(=O)O)[C@H]3OS(=O)(=O)O)[C@H](OS(=O)(=O)O)[C@H]2OS(=O)(=O)O)cc1.[Na].[Na].[Na].[Na].[Na].[Na].[Na].[Na].[Na].[Na].[Na].[Na].[Na].[Na] [tetradecasodium N,N'-bis[4-[2,3,6-tri-O-sulfo-4-O-(2,3,4,6-tetra-O-sulfo-α-D-glucopyranosyl)-β-D-glucopyranosylthio]phenyl]tetradecanediamide] | 7 Wells | 3.0 Wells | – | – | – |
| O=C(CCCC(=O)Nc1ccc(S[C@@H]2O[C@H](COS(=O)(=O)O)[C@@H](O[C@H]3O[C@H](COS(=O)(=O)O)[C@@H](OS(=O)(=O)O)[C@H](OS(=O)(=O)O)[C@H]3OS(=O)(=O)O)[C@H](OS(=O)(=O)O)[C@H]2OS(=O)(=O)O)cc1)Nc1ccc(S[C@@H]2O[C@H](COS(=O)(=O)O)[C@@H](O[C@H]3O[C@H](COS(=O)(=O)O)[C@@H](OS(=O)(=O)O)[C@H](OS(=O)(=O)O)[C@H]3OS(=O)(=O)O)[C@H](OS(=O)(=O)O)[C@H]2OS(=O)(=O)O)cc1.[Na].[Na].[Na].[Na].[Na].[Na].[Na].[Na].[Na].[Na].[Na].[Na].[Na].[Na] [tetradecasodium N,N'-bis[4-[2,3,6-tri-O-sulfo-4-O-(2,3,4,6-tetra-O-sulfo-α-D-glucopyranosyl)-β-D-glucopyranosylthio]phenyl]pentanediamide] | 9.9 Wells | 1.5 Wells | 90% | 88% | 44% |
| O=C(CCCCCC(=O)Nc1ccc(S[C@@H]2O[C@H](COS(=O)(=O)O)[C@@H](O[C@H]3O[C@H](COS(=O)(=O)O)[C@@H](OS(=O)(=O)O)[C@H](OS(=O)(=O)O)[C@H]3OS(=O)(=O)O)[C@H](OS(=O)(=O)O)[C@H]2OS(=O)(=O)O)cc1)Nc1ccc(S[C@@H]2O[C@H](COS(=O)(=O)O)[C@@H](O[C@H]3O[C@H](COS(=O)(=O)O)[C@@H](OS(=O)(=O)O)[C@H](OS(=O)(=O)O)[C@H]3OS(=O)(=O)O)[C@H](OS(=O)(=O)O)[C@H]2OS(=O)(=O)O)cc1.[Na].[Na].[Na].[Na].[Na].[Na].[Na].[Na].[Na].[Na].[Na].[Na].[Na].[Na] [tetradecasodium N,N'-bis[4-[2,3,6-tri-O-sulfo-4-O-(2,3,4,6-tetra-O-sulfo-α-D-glucopyranosyl)-β-D-glucopyranosylthio]phenyl]heptanediamide] | 10.7 Wells | 1.0 Wells | 87% | 87% | 50% |
| O=C(CCCCCCCCC(=O)Nc1ccc(S[C@@H]2O[C@H](COS(=O)(=O)O)[C@@H](O[C@H]3O[C@H](COS(=O)(=O)O)[C@@H](OS(=O)(=O)O)[C@H](OS(=O)(=O)O)[C@H]3OS(=O)(=O)O)[C@H](OS(=O)(=O)O)[C@H]2OS(=O)(=O)O)cc1)Nc1ccc(S[C@@H]2O[C@H](COS(=O)(=O)O)[C@@H](O[C@H]3O[C@H](COS(=O)(=O)O)[C@@H](OS(=O)(=O)O)[C@H](OS(=O)(=O)O)[C@H]3OS(=O)(=O)O)[C@H](OS(=O)(=O)O)[C@H]2OS(=O)(=O)O)cc1.[Na].[Na].[Na].[Na].[Na].[Na].[Na].[Na].[Na].[Na].[Na].[Na].[Na].[Na] [tetradecasodium N,N'-bis[4-[2,3,6-tri-O-sulfo-4-O-(2,3,4,6-tetra-O-sulfo-α-D-glucopyranosyl)-β-D-glucopyranosylthio]phenyl]decanediamide] | 5.0 Wells | 0.8 Wells | 88% | 87% | 75% |
| O=C(Nc1ccc(S[C@@H]2O[C@H](COS(=O)(=O)O)[C@@H](O[C@H]3O[C@H](COS(=O)(=O)O)[C@@H](OS(=O)(=O)O)[C@H](OS(=O)(=O)O)[C@H]3OS(=O)(=O)O)[C@H](OS(=O)(=O)O)[C@H]2OS(=O)(=O)O)cc1)C(=O)Nc1ccc(S[C@@H]2O[C@H](COS(=O)(=O)O)[C@@H](O[C@H]3O[C@H](COS(=O)(=O)O)[C@@H](OS(=O)(=O)O)[C@H](OS(=O)(=O)O)[C@H]3OS(=O)(=O)O)[C@H](OS(=O)(=O)O)[C@H]2OS(=O)(=O)O)cc1.[Na].[Na].[Na].[Na].[Na].[Na].[Na].[Na].[Na].[Na].[Na].[Na].[Na].[Na] [tetradecasodium N,N'-bis[4-[2,3,6-tri-O-sulfo-4-O-(2,3,4,6-tetra-O-sulfo-α-D-glucopyranosyl)-β-D-glucopyranosylthio]phenyl]ethanediamide] | 9.5 Wells | 1.2 Wells | 90% | 90% | 80% |
| O=C(CC(=O)Nc1ccc(S[C@@H]2O[C@H](COS(=O)(=O)O)[C@@H](O[C@H]3O[C@H](COS(=O)(=O)O)[C@@H](OS(=O)(=O)O)[C@H](OS(=O)(=O)O)[C@H]3OS(=O)(=O)O)[C@H](OS(=O)(=O)O)[C@H]2OS(=O)(=O)O)cc1)Nc1ccc(S[C@@H]2O[C@H](COS(=O)(=O)O)[C@@H](O[C@H]3O[C@H](COS(=O)(=O)O)[C@@H](OS(=O)(=O)O)[C@H](OS(=O)(=O)O)[C@H]3OS(=O)(=O)O)[C@H](OS(=O)(=O)O)[C@H]2OS(=O)(=O)O)cc1.[Na].[Na].[Na].[Na].[Na].[Na].[Na].[Na].[Na].[Na].[Na].[Na].[Na].[Na] [tetradecasodium N,N'-bis[4-[2,3,6-tri-O-sulfo-4-O-(2,3,4,6-tetra-O-sulfo-α-D-glucopyranosyl)-β-D-glucopyranosylthio]phenyl]propanediamide] | 9.9 Wells | 1.6 Wells | 90% | 90% | 47% |
| O=C(CCCC(=O)Nc1ccc(S[C@@H]2O[C@H](COS(=O)(=O)O)[C@@H](O[C@@H]3O[C@H](COS(=O)(=O)O)[C@@H](OS(=O)(=O)O)[C@H](OS(=O)(=O)O)[C@H]3OS(=O)(=O)O)[C@H](OS(=O)(=O)O)[C@H]2OS(=O)(=O)O)cc1)Nc1ccc(S[C@@H]2O[C@H](COS(=O)(=O)O)[C@@H](O[C@@H]3O[C@H](COS(=O)(=O)O)[C@@H](OS(=O)(=O)O)[C@H](OS(=O)(=O)O)[C@H]3OS(=O)(=O)O)[C@H](OS(=O)(=O)O)[C@H]2OS(=O)(=O)O)cc1.[Na].[Na].[Na].[Na].[Na].[Na].[Na].[Na].[Na].[Na].[Na].[Na].[Na].[Na] [tetradecasodium N,N'-bis[4-[2,3,6-tri-O-sulfo-4-O-(2,3,4,6-tetra-O-sulfo-β-D-glucopyranosyl)-β-D-glucopyranosylthio]phenyl]pentanediamide] | 12 Wells | 2.0 Wells | – | – | – |
| O=C(CCCCC(=O)Nc1ccc(S[C@@H]2O[C@H](COS(=O)(=O)O)[C@@H](O[C@H]3O[C@H](COS(=O)(=O)O)[C@@H](OS(=O)(=O)O)[C@H](OS(=O)(=O)O)[C@H]3OS(=O)(=O)O)[C@H](OS(=O)(=O)O)[C@H]2OS(=O)(=O)O)cc1)Nc1ccc(S[C@@H]2O[C@H](COS(=O)(=O)O)[C@@H](O[C@H]3O[C@H](COS(=O)(=O)O)[C@@H](OS(=O)(=O)O)[C@H](OS(=O)(=O)O)[C@H]3OS(=O)(=O)O)[C@H](OS(=O)(=O)O)[C@H]2OS(=O)(=O)O)cc1.[Na].[Na].[Na].[Na].[Na].[Na].[Na].[Na].[Na].[Na].[Na].[Na].[Na].[Na] [tetradecasodium N,N'-bis[4-[2,3,6-tri-O-sulfo-4-O-(2,3,4,6-tetra-O-sulfo-α-D-glucopyranosyl)-β-D-glucopyranosylthio]phenyl]hexanediamide] | 10.5 Wells | 1.0 Wells | 90% | 85% | 76% |
| O=C(CCC(=O)Nc1ccc(S[C@@H]2O[C@H](COS(=O)(=O)O)[C@@H](O[C@H]3O[C@H](COS(=O)(=O)O)[C@@H](OS(=O)(=O)O)[C@H](OS(=O)(=O)O)[C@H]3OS(=O)(=O)O)[C@H](OS(=O)(=O)O)[C@H]2OS(=O)(=O)O)cc1)Nc1ccc(S[C@@H]2O[C@H](COS(=O)(=O)O)[C@@H](O[C@H]3O[C@H](COS(=O)(=O)O)[C@@H](OS(=O)(=O)O)[C@H](OS(=O)(=O)O)[C@H]3OS(=O)(=O)O)[C@H](OS(=O)(=O)O)[C@H]2OS(=O)(=O)O)cc1 [Tetradecasodium N,N'--bis[4-[2,3,6-tri-O--sulfo-4-O--(2,3,4,6-tetra-O--sulfo-α-D-glucopyranosyl)-β -D-glucopyranosylthio]phenyl]butanediamide] | 10.2 Wells | 1.4 Wells | – | – | – |
